Measurements reported in PubChem BioAssay (NCI).
Values joined by “and” are separate entries in the source; they are usually repeats but may differ in a detail not shown here. Equal values may be shown once.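 Each compound was tested at five concentrations against cells in 96-well plates for 48 hours. The concentration for 50% growth inhibition is given as GI50. TGI marks complete inhibition of growth.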

Test system: HT29 colon
Assay: NCI-60 cell line screen, 48 h

Row | Structure (SMILES) | TGI | GI50
1 | COc1ccc(CC2c3cc4c(cc3CCN2C)OCO4)c(C=O)c1OC (centres undefined) | > 100 µM | 
2 | CN1CCCCC1CCN1c2ccccc2Sc2ccc(Cl)cc21 (centres undefined) | 11.1 µM | 3.17 µM
3 | C=C(C)C(OC)C(O)CC1(C)CC(O)CC(C)(C2CCC3OC(C4(C)CCC(Br)C(C)(C)O4)CCC3(C)O2)O1 (centres undefined) | > 78.9 µM | 30.3 µM
4 | O=C(Nc1nc2ccc([N+](=O)[O-])cc2s1)C(=O)C(C1OC(=O)c2ccccc21)[N+](=O)[O-] (centres undefined) | > 100 µM | 
5 | Cc1cc(-c2nc(C(=O)Nc3cc4oc(N5CCOCC5)nc4nc3N3CC[C@@H](O)C3)co2)ccn1 | > 100 µM | > 100 µM
6 | COc1cc2c(cc1OCCCCN1CCN(CC(=O)Nc3ccc(Cl)cc3C(=O)c3ccccc3Cl)CC1)N=CC1CCCN1C2=O (centres undefined) | 1.04 µM | 0.25 µM
7 | O=C(CCc1nc(=S)[nH][nH]1)Nc1ccc(Cl)c(Cl)c1 | > 100 µM | 
8 | COC(=O)C1(C(C)C)CCc2c(OC)ccc(OC)c2C1=O (centres undefined) | > 100 µM | 
9 | Cc1ccc(Cl)c2c(N=Nc3ccccc3[N+](=O)[O-])c(O)[nH]c12 | > 100 µM | 
10 | FC(F)(F)c1cccc(Nc2nc(-c3ccccc3)nc3ncccc23)c1 | 12 µM | 3.15 µM
11 | O=C(Nc1ccccc1)c1c(O)[nH]c(=S)[nH]c1=O | 125 µM and > 250 µM | 93.5 µM
12 | OC1CSSC1Cn1cnc2c(Nc3ccc(OCc4cccc(F)c4)c(Cl)c3)ncnc21 (centres undefined) | 3.91 µM | 0.744 µM
13 | C=CCOc1ccc2c(C)cc(=O)oc2c1C | > 100 µM | 
14 | Nc1c(C(=O)c2cccc(CCS(N)(=O)=O)c2)cnn1-c1ccc(F)cc1 | > 25 µM | > 25 µM
15 | COC(=O)c1ccccc1NC(=O)C(=O)Cc1nc2c3c(ccc2[nH]c1=O)C(=O)c1ccccc1C3=O | > 100 µM | 
16 | COc1cc2cc(OC)c3cc4c(cc3c2c(OC)c1OC)OCO4 | 30.7 µM | 

Row | Structure (SMILES) | TGI | GI50
17 | O=C(CC(=O)c1cccc2ccccc12)C(=O)Nc1ccc(Cl)cc1 | > 100 µM | 
18 | OCc1cc2ccccc2c2c3c(ccc12)OCO3 | 78.6 µM | 27.5 µM
19 | CCCCCCCCCCCCCC(=O)OC(/C=C/C(C)C)C(O)C(O)C(OC)C(=O)NC1CCCCN(C)C1=O (centres undefined) | 7.01 µM and > 49 µM | 
20 | CC1(C(=O)O)CCC[C@@]2(C)C1CC[C@@]1(C)c3cocc3CCC21 (some centres undefined) | > 100 µM | 
21 | C[C@@H](Oc1cc(-n2cnc3ccc(CN4CCN(C)CC4)cc32)sc1C(N)=O)c1ccccc1C(F)(F)F | 6.51 µM and > 10 µM | < 0.01 µM and 0.00402 µM
22 | CCN(CC)CCSc1c2ccccc2nc2cc(NCC(=O)Nc3ccccc3-c3ccccc3NC(=O)CNc3ccc4c(SCCN(CC)CC)c5ccccc5nc4c3)ccc12 | > 100 µM | 
23 | Cc1ccsc1C(=S)Nc1ccc(Cl)c(/C=N/OC(C)(C)C)c1 | 27.1 µM | 
24 | CC(C)=CCC\C(C)=C/C=C/C(C)=C\C=C\C(C)=C/C=C/C=C(C)\C=C\C=C(C)/C=C/C=C(/C)CCC=C(C)C | > 100 µM | 
25 | CC1(C)C(=O)/C=C\C(=O)C(C)(C)C2=CC=C(O2)C(C)(C)C(=O)/C=C\C(=O)C(C)(C)C2=CC=C1O2 | > 100 µM | 
26 | NC(=O)NO.O.O.O.O.O.O.O.O.O.O.O.[Ge].[Ge].[Ge].[Ge].[Ge].[O]=[Ge].[O]=[Ge].[O]=[Ge].[O]=[Ge].[O]=[Ge][OH] | > 100 µM | 
27 | CN(C)C(=S)N=C(Nc1ccccc1)Nc1ccccc1 | > 100 µM | 
28 | NC(N)=NS(=O)(=O)c1ccc(Nc2c3ccccc3nc3c(C(=O)NCCO)cccc23)cc1 |  | 29.7 µM
29 | COc1cccc(C2c3cc4c(cc3OC(C)(N3CCCC3)C2C)OCO4)c1O (centres undefined) | 12.2 µM | 
30 | COC(=O)CC[N+]1=CCC(c2ccccc2)(c2ccccc2)O1 | > 100 µM | 
31 | O=C1NC(=NCCc2cccc(F)c2)S/C1=C\c1ccc2ncccc2c1 | > 25 µM | 1.05 µM
32 | COc1cc(/C=N\NC(=O)CN2CCN(c3cc4c(cc3F)c(=O)c(C(=O)N/N=C/c3cc(OC)c(OC)c(OC)c3)cn4C3CC3)CC2)cc(OC)c1OC |  | 0.278 µM

Test system: CAKI-1 renal
Assay: NCI-60 cell line screen, 48 h

Row | Structure (SMILES) | TGI [µM] | GI50 [µM]
33 | COc1ccc(CC2c3cc4c(cc3CCN2C)OCO4)c(C=O)c1OC (centres undefined) | > 100 | 
34 | CN1CCCCC1CCN1c2ccccc2Sc2ccc(Cl)cc21 (centres undefined) | 15.8 | 3.63
35 | C=C(C)C(OC)C(O)CC1(C)CC(O)CC(C)(C2CCC3OC(C4(C)CCC(Br)C(C)(C)O4)CCC3(C)O2)O1 (centres undefined) | 38.3 | 18.1
36 | O=C(Nc1nc2ccc([N+](=O)[O-])cc2s1)C(=O)C(C1OC(=O)c2ccccc21)[N+](=O)[O-] (centres undefined) | > 100 | 
37 | Cc1cc(-c2nc(C(=O)Nc3cc4oc(N5CCOCC5)nc4nc3N3CC[C@@H](O)C3)co2)ccn1 | 71.6 | 17.1
38 | COc1cc2c(cc1OCCCCN1CCN(CC(=O)Nc3ccc(Cl)cc3C(=O)c3ccccc3Cl)CC1)N=CC1CCCN1C2=O (centres undefined) | 0.676 | 0.28
39 | O=C(CCc1nc(=S)[nH][nH]1)Nc1ccc(Cl)c(Cl)c1 | > 100 | 
